Assay results reported in publication PMC10385824, “Antiproliferative and Tubulin-Destabilising Effects of 3-(Prop-1-en-2-yl)azetidin-2-Ones and Related Compounds in MCF-7 and MDA-MB-231 Breast Cancer Cells” (Pharmaceuticals, 2023).

Columns and labels:
HCT-15 = assay: NCI-60 SRB screen, colon cancer; assay type: cell-based, human; settings: Homo sapiens, HCT-15, 48 h
EKVX = assay: NCI-60 SRB screen, non-small cell lung cancer; assay type: cell-based, human; settings: Homo sapiens, 48 h
IGROV1 = assay: NCI-60 SRB screen, ovarian cancer; assay type: cell-based, human; settings: Homo sapiens, IGROV-1, 48 h
ACHN = assay: NCI-60 SRB screen, renal cancer; assay type: cell-based, human; settings: Homo sapiens, 48 h
OVCAR-4 = assay: NCI-60 SRB screen, ovarian cancer; assay type: cell-based, human; settings: Homo sapiens, OVCAR-4, 48 h
OVCAR-3 = assay: NCI-60 SRB screen, ovarian cancer; assay type: cell-based, human; settings: Homo sapiens, OVCAR-3, 48 h
KM12 = assay: NCI-60 SRB screen, colon cancer; assay type: cell-based, human; settings: Homo sapiens, KM12, 48 h
UO-31 = assay: NCI-60 SRB screen, renal cancer; assay type: cell-based, human; settings: Homo sapiens, UO-31, 48 h
BT-549 = assay: NCI-60 SRB screen, breast cancer; assay type: cell-based, human; settings: Homo sapiens, BT-549, 48 h
CAKI-1 = assay: NCI-60 SRB screen, renal cancer; assay type: cell-based, human; settings: Homo sapiens, CAKI-1, 48 h
SW-620 = assay: NCI-60 SRB screen, colon cancer; assay type: cell-based, human; settings: Homo sapiens, SW-620, 48 h
A549/ATCC = assay: NCI-60 SRB screen, non-small cell lung cancer; assay type: cell-based, human; settings: Homo sapiens, A549, 48 h
SK-MEL-5 = assay: NCI-60 SRB screen, melanoma; assay type: cell-based, human; settings: Homo sapiens, SK-MEL-5, 48 h
OVCAR-8 = assay: NCI-60 SRB screen, ovarian cancer; assay type: cell-based, human; settings: Homo sapiens, OVCAR-8, 48 h
SNB-75 = assay: NCI-60 SRB screen, CNS cancer; assay type: cell-based, human; settings: Homo sapiens, SNB-75, 48 h
RXF 393 = assay: NCI-60 SRB screen, renal cancer; assay type: cell-based, human; settings: Homo sapiens, RXF 393, 48 h
PC-3 = assay: NCI-60 SRB screen, prostate cancer; assay type: cell-based, human; settings: Homo sapiens, PC-3, 48 h
COLO 205 = assay: NCI-60 SRB screen, colon cancer; assay type: cell-based, human; settings: Homo sapiens, COLO 205, 48 h
[1] = test system: MCF-7 human breast cancer cells; assay: cells; settings: MCF7, read-out: Antiproliferative Activity IC50
HOP-62 = assay: NCI-60 SRB screen, non-small cell lung cancer; assay type: cell-based, human; settings: Homo sapiens, HOP-62, 48 h
SK-MEL-2 = assay: NCI-60 SRB screen, melanoma; assay type: cell-based, human; settings: Homo sapiens, SK-MEL-2, 48 h
786-0 = assay: NCI-60 SRB screen, renal cancer; assay type: cell-based, human; settings: Homo sapiens, 786-0, 48 h
[2] = test system: MDA-MB-231 human breast cancer cells; assay: Alamar Blue cell viability (antiproliferative) assay; assay type: cell-based; settings: read-out: IC50
UACC-62 = assay: NCI-60 SRB screen, melanoma; assay type: cell-based, human; settings: Homo sapiens, UACC-62, 48 h
MCF-7 = assay: cells; settings: Homo sapiens, MCF7, 48 h
M14 = assay: NCI-60 SRB screen, melanoma; assay type: cell-based, human; settings: Homo sapiens, M14, 48 h
MDA-MB-468 = assay: NCI-60 SRB screen, breast cancer; assay type: cell-based, human; settings: Homo sapiens, MDA-MB-468, 48 h
LOX IMVI = assay: NCI-60 SRB screen, melanoma; assay type: cell-based, human; settings: Homo sapiens, 48 h
A498 = assay: NCI-60 SRB screen, renal cancer; assay type: cell-based, human; settings: Homo sapiens, A498, 48 h
HCT-116 = assay: NCI-60 SRB screen, colon cancer; assay type: cell-based, human; settings: Homo sapiens, HCT-116, 48 h
HOP-92 = assay: NCI-60 SRB screen, non-small cell lung cancer; assay type: cell-based, human; settings: Homo sapiens, HOP-92, 48 h
HT29 = assay: NCI-60 SRB screen, colon cancer; assay type: cell-based, human; settings: Homo sapiens
NCI-H23 = assay: NCI-60 SRB screen, non-small cell lung cancer; assay type: cell-based, human; settings: Homo sapiens, NCI-H23, 48 h

For `C=CC=CC1C(=O)N(c2cc(OC)c(OC)c(OC)c2)C1c1ccc(OC)cc1` (stereo not shown) [11h, 3-(Buta-1,3-dienyl)-4-(4-methoxyphenyl)-1-(3,4,5-trimethoxyphenyl)azetidin-2-one], the GI50 (HCT-15) was 40.5 nM, the GI50 (EKVX) was 83.4 nM and the GI50 (IGROV1) was 50.7 nM. The GI50 (ACHN) was 60.7 nM, the GI50 (OVCAR-4) was 37.3 nM and the GI50 (OVCAR-3) was 25.2 nM. It also gave a GI50 (KM12) of 30.4 nM, a GI50 (UO-31) of 216 nM and a GI50 (BT-549) of 20.3 nM. It also gave a GI50 (CAKI-1) of 58.9 nM, a GI50 (SW-620) of 43.8 nM and a GI50 (A549/ATCC) of 36.4 nM. The GI50 (SK-MEL-5) was 26 nM, the GI50 (OVCAR-8) was 37.4 nM and the GI50 (SNB-75) was 30.7 nM. It also gave a GI50 (RXF 393) of 30.1 nM, a GI50 (PC-3) of 40.4 nM and a GI50 (COLO 205) of 26.5 nM. It also gave an IC50 [1] of 33 ± 5 nM, a GI50 (HOP-62) of 55.8 nM and a GI50 (SK-MEL-2) of 3250 nM. The GI50 (786-0) was 23.1 nM, the IC50 [2] was 31 nM and the GI50 (UACC-62) was 26.7 nM. The GI50 (MCF-7) was 33.5 nM, the GI50 (M14) was 19.4 nM and the GI50 (MDA-MB-468) was 23.3 nM. For the same compound, the GI50 (LOX IMVI) was 32.7 nM, the GI50 (A498) was 18.3 nM and the GI50 (HCT-116) was 26.4 nM. The GI50 (HOP-92) was 24.4 nM, the IC50 (HT29; HT-29) was 33 nM and the GI50 (HT29; HT-29, 48 h) was 33.2 nM. It also gave a GI50 (NCI-H23) of 32.1 nM.
